Legend:
MCF7 cells [1] = test: Clonogenic survival after irradiation (radiosensitivity); assay type: cell-based, human; settings: NU-1 0.5 μM
Procedure: (§1) To assess radiosensitivity, MCF7, Saos-2, or CT26 cells were seeded in 6-well plates at 100 cells per well in triplicate, allowed to attach overnight and treated with DMSO or TERT inhibitors at subtoxic concentrations for 1 h prior to IR. MCF7 cells were treated with 0.5 μM NU-1, 10 μM BIBR 1532, or 1 μM MST-312, Saos-2 cells with 1 μM NU-1 or 20 μM BIBR 1532 and CT26 cells with 1 μM NU-1, 20 μM BIBR 1532 or 2 μM MST-312. Doses of 0, 1, 2, 3, 4, or 5 Gy were applied using a GammaCell ^60Co γ-ray source (Nordion) at a dose rate of 7.09 cGy/sec. After that MCF7 and Saos-2 cells were cultured for 3 weeks and CT26 for 2 weeks, then fixed and stained with crystal violet. Colonies of at least 50 cells were counted. Data from three independent biological replicates were acquired. The surviving fraction (SF) was calculated using the following formula: […]

Saos-2 cells [2] = test: as above; assay type: cell-based, human; settings: NU-1 1 μM
Procedure: as §1

MCF7-FUCCI cells = test: Time-lapse live-cell analysis of cell cycle; assay type: cell-based, human; settings: 0.5 μM for 1 h, then 6 Gy, 6 days
Procedure: MCF7-FUCCI cells were seeded at 3×10^4 per well in 6-well plates, allowed to attach overnight, then treated with 0.5 μM NU-2 control, NU-1 or chrolactomycin for 1 h, followed by 6 Gy. Then, live-cell imaging was conducted using the IncuCyteS3. Phase contrast along with green and red channels were acquired at 20× magnification with scanning every 2 h for 6 days. 16 non-overlapping fields were captured for each well. Representative consecutive images were used to create the movies using Fiji (Schindelin et al., 2012).

Saos-2 cells [3] = test: DNA damage foci staining (53BP1, γH2AX); assay type: cell-based, human; settings: 1 μM NU-1, 0 or 6 Gy
Procedure: MCF7 or Saos-2 cells were seeded on sterile cover glass at 2.5×10^4 per well in 24-well plates. MCF7 cells were treated with DMSO, NU-2 (0.5 μM), NU-1 (0.5 μM), chrolactomycin (0.5 μM), BIBR 1532 (10 μM), or MST-312 (1 μM) for 1 h, and Saos-2 cells were treated with DMSO or NU-1 (1 μM) for 1 h, followed by 0 or 6 Gy irradiation. 24 h after irradiation, cells were fixed with 4% PFA for 10 min and permeabilized with 0.2% Triton-X 100 diluted in PBS for 10 min at room temperature. After blocking with 5% BSA-PBS for 1 h, primary antibodies for γH2AX (Millipore, 05-636, 1:1000) or 53BP1 (Novus, NB100-304, 1:1000) diluted in 5% BSA-PBS were then incubated on cell slides overnight at 4° C. Following PBS washes, DAPI (1 μg/mL) and fluorescent secondary antibodies (Jackson ImmunoResearch, 1:2000, ) diluted in 5% BSA-PBS were applied for 1 h at room temperature. Cell slides were mounted with ProLong Gold Antifade Mountant (Thermo Fisher Scientific) after PBS washes. Foci images were captured on a Zeiss Axiovert 40CFL with a 40× Plan-NeoFluar objective and pseudo-colored using Fiji. Three replicates were performed.

Tolerability in mice = assay type: in vivo; settings: BALB/c mice
CT26 cells = test: Senescence-associated beta-galactosidase (SA-β-Gal) assay; assay type: cell-based, mouse; settings: non-toxic doses, 10 Gy, 5 days
Procedure: MCF7, Saos-2, or CT26 cells were seeded at 3×10^4 per well in 6-well plates and allowed to attach to plate overnight. For TERT inhibition, MCF7 cells were treated with DMSO vehicle, NU-2 (0.5 μM), NU-1 (0.5 μM), chrolactomycin (0.5 μM), BIBR 1532 (10 μM), or MST-312 (1 μM) for 1 h prior to IR, Saos-2 cells were treated with DMSO vehicle, NU-2 (1 μM), NU-1 (1 μM), chrolactomycin (1 μM), BIBR 1532 (20 μM), or MST-312 (1 μM) for 1 h prior to IR, and CT26 cells were treated with MSO vehicle, NU-2 (1 μM), NU-1 (1 μM), chrolactomycin (1 μM), BIBR 1532 (20 μM), or MST-312 (2 μM) for 1 h prior to IR. Then MCF7 and Saos-2 cells were irradiated with 0 or 6 Gy and CT26 cells with 0 or 10 Gy. After IR, MCF7 and Saos-2 cells were continuously cultured for 7 days and CT26 for 5 days, then fixed in 2% PFA and stained with staining buffer (1 mg/ml X-Gal (Golden Bio), 40 mM citric acid/sodium phosphate, 150 mM NaCl, 2 mM MgCl2, 3.3 mM K3[Fe(CN)6], 3.3 mM K4[Fe(CN)6], pH=6) for 16 h at 37° C., then washed with warm PBS three times and imaged in PBS within a week. Images were captured on a Zeiss Axiovert 200M microscope with a 20× Plan-NeoFluar objective and Axiocam digital camera. SA-β-Gal-positive and -negative cells were counted in more than 5 fields, yielding an average percentage indicated on each SA-β-Gal image as mean±SD. Three replicates were performed.
To examine the roles for STING, CT26 cells were seeded at 2×10^4 per well in 12-well plates and allowed to attach overnight. STING inhibitor C178 (0 or 4 μM) was added, followed by the addition of DMSO vehicle, NU-1 (1 μM), MST-312 (2 μM) or chrolactomycin (1 μM) for 1 h prior to 0 or 10 Gy. CT26 cells were cultured for 5 days, surviving cells were washed twice in PBS and cultured in fresh immune cell culture medium overnight. The CT26 cells were then cocultured with BMDCs for 12-16 h at a 1:2 ratio, and BMDCs were collected and analyzed after coculturing, as described above.

MCF7 cells [4] = settings: cited from earlier work

Compound: C=C1C(=O)[C@](C)(C(=O)OC)[C@H](CCc2cn(Cc3ccc(F)cc3F)nn2)O[C@@H]1C [NU-1]
- Radiosensitization in clonogenic survival assay (MCF7 cells [1]; MCF7, BIBR 10 μM, MST 1 μM, IR 0-5 Gy): strongest effects
- Mean SF2 (surviving fraction at 2 Gy) (MCF7 cells [1]; MCF7 cells, BIBR 1532 10 μM, MST-312 1 μM for 1 h prior to IR, 2 Gy): 0.116
- Radiosensitization in clonogenic survival assay (Saos-2 cells [2]; Saos-2 (telomerase negative), BIBR 20 μM): Neither NU-1 nor BIBR displayed radiosensitization
- Mean SF2 (surviving fraction at 2 Gy) (Saos-2 cells [2]; Saos-2 cells, BIBR 1532 20 μM for 1 h prior to IR, 2 Gy): 0.583
- Surviving cells arrested with G1 marker expression and senescent morphology (MCF7-FUCCI cells): ~80%
- Effect on 53BP1 or γH2AX foci (Saos-2 cells [3]): appeared not to impact 53BP1 or γH2AX foci
- Tolerability in mice (Tolerability in mice): well-tolerated
- Senescence induction by IR (CT26 cells): enhanced senescence induction by IR
- LD50 (MCF7 cells [4]): 21 µM

Reference: US12440476B2, “Agents that target telomerase reverse transcriptase (TERT) for treating cancer and sensitizing cancer cells to genotoxic therapy” (Northwestern University, priority 2022, dated 2025)
